In patent publication US20060084688A1, “Aromatic sulfone hydroxamic acid metalloprotease inhibitor” (priority 1997, published 2006):
Counter-ions that a name gives are not always drawn. Like-named read-outs stand apart in the source and are kept apart here.

What was measured:
Test in all cases: biochemical
[1] = biological target: T1, recombinant human MMP-2 (Homo sapiens, UniProt P08253)
T1 sequence (P08253 110-660): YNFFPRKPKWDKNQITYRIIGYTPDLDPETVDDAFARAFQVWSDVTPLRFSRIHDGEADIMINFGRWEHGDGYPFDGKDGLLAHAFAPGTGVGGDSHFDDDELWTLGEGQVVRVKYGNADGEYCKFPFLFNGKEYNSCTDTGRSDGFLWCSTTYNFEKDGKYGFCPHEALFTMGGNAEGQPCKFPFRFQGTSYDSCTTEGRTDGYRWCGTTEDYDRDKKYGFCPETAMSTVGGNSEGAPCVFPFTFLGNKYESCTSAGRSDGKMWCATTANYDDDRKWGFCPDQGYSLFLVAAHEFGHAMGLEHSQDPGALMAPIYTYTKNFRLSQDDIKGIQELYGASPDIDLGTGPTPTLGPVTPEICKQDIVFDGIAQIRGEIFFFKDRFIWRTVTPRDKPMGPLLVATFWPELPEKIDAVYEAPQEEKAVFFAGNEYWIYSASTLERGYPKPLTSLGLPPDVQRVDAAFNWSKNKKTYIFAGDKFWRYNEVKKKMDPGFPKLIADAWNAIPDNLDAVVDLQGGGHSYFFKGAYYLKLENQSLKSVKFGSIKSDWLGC

[2] = biological target: T2, recombinant human MMP-1 (Homo sapiens, UniProt P03956)
T2 construct: made in house; host or cells: transfected HT-1080 cells
T2 sequence (P03956 100-469): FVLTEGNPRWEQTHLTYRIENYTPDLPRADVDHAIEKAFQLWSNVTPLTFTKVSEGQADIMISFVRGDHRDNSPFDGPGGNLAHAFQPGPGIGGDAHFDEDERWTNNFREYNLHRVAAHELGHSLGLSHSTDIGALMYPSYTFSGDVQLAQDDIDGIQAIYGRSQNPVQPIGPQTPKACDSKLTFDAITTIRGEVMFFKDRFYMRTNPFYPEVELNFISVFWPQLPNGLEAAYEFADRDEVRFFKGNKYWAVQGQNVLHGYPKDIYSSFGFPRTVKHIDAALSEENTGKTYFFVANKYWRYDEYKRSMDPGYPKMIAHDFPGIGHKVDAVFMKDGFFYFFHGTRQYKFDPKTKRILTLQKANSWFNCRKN

[3] = biological target: recombinant human MMP-13 (Homo sapiens, UniProt P45452)

Row | IC50 ([1]; room temperature, pH 7.5, 1 percent DMSO, 4 μM MCA peptide substrate, no asterisk) [nM] | IC50 [2] [nM] | IC50 ([3]; room temperature, pH 7.5, 1 percent DMSO, 4 μM MCA peptide substrate) [nM] | SMILES | IC50 ([1]; Inhibition Table B) [nM] | IC50 ([2]; Inhibition Table B) [nM] | IC50 ([3]; Inhibition Table B) [nM]
1 | 1.3 | > 10000 | 0.6 | O=C(NO)C1(S(=O)(=O)c2ccc(SC3CCCCC3)cc2)CCN(C2CC2)CC1 [Example 21] | – | – | –
2 | – | – | – | C#CCN1CCC(C(=O)O)(S(=O)(=O)c2ccc(Sc3ccc(Cl)cc3)cc2)CC1 [Example 44a, 4-[[4-(4-chlorophenyl)thio]phenyl)sulfonyl]-1-(propynyl)-4-piperidinecarboxylic acid, monohydrochloride] | < 0.1 | > 10000 | 0.2
3 | – | – | – | C#CCN1CCC(C(=O)NO)(S(=O)(=O)c2ccc(Sc3ccc(Cl)cc3)cc2)CC1 [Example 44b, 4-[[4-(4-chlorophenyl)thio]phenyl]sulfonyl]-N-hydroxy-1-(propynyl)-4-piperidinecarboxamide, monohydrochloride] | 8000 | > 10000 | > 10000
4 | – | – | – | C#CCN1CCC(C(=O)NO)(S(=O)(=O)c2ccc([S+]([O-])c3ccccc3)cc2)CC1 (stereo not drawn) [Example 47b] | 3000 | > 10000 | 3100
5 | – | – | – | O=C(O)C1CCN(c2ccc(S(=O)(=O)C3(C(=O)NO)CCOCC3)cc2)CC1 [Example 129] | > 100 | > 10000 | 1000
6 | – | – | – | CNC(=O)C1CCN(c2ccc(S(=O)(=O)C3(C(=O)NO)CCOCC3)cc2)CC1 [Example 130] | 57.7 | > 10000 | 45.9
7 | – | – | – | O=C(C1CCN(c2ccc(S(=O)(=O)C3(C(=O)NO)CCOCC3)cc2)CC1)N1CCOCC1 [Example 131] | 650 | > 10000 | 10
8 | – | – | – | O=C(NCCO)C1CCN(c2ccc(S(=O)(=O)C3(C(=O)NO)CCOCC3)cc2)CC1 [Example 132] | 420 | > 10000 | –
9 | – | – | – | NCCCNC(=O)C1CCN(c2ccc(S(=O)(=O)C3(C(=O)NO)CCOCC3)cc2)CC1 [Example 133] | 90 | > 10000 | 27
10 | – | – | – | CCNC(=O)C1CCN(c2ccc(S(=O)(=O)C3(C(=O)NO)CCOCC3)cc2)CC1 [Example 134] | 29 | 9000 | 4
11 | – | – | – | O=C(O)CNC(=O)C1CCN(c2ccc(S(=O)(=O)C3(C(=O)NO)CCOCC3)cc2)CC1 [Example 135] | 500 | > 10000 | 65
12 | – | – | – | O=C(NO)C1CCN(c2ccc(S(=O)(=O)C3(C(=O)NO)CCOCC3)cc2)CC1 [Example 137] | 300 | > 10000 | 34.7
13 | – | – | – | O=C(O)C1CCCN(c2ccc(S(=O)(=O)C3(C(=O)NO)CCOCC3)cc2)C1 (stereo not drawn) [Example 138] | > 100 | > 10000 | > 100
14 | – | – | – | CNC(=O)C1CCCN(c2ccc(S(=O)(=O)C3(C(=O)NO)CCOCC3)cc2)C1 (stereo not drawn) [Example 139] | – | > 10000 | 25.4
15 | – | – | – | O=C(C1CCCN(c2ccc(S(=O)(=O)C3(C(=O)NO)CCOCC3)cc2)C1)N1CCOCC1 (stereo not drawn) [Example 140] | – | > 10000 | 60
16 | – | – | – | O=C(NCCO)C1CCCN(c2ccc(S(=O)(=O)C3(C(=O)NO)CCOCC3)cc2)C1 (stereo not drawn) [Example 141] | > 100 | > 10000 | > 100
17 | – | – | – | NCCCNC(=O)C1CCCN(c2ccc(S(=O)(=O)C3(C(=O)NO)CCOCC3)cc2)C1 (stereo not drawn) [Example 142] | 600 | > 10000 | 70
18 | – | – | – | CCNC(=O)C1CCCN(c2ccc(S(=O)(=O)C3(C(=O)NO)CCOCC3)cc2)C1 (stereo not drawn) [Example 143] | 900 | > 10000 | 23.9
19 | – | – | – | O=C(O)CNC(=O)C1CCCN(c2ccc(S(=O)(=O)C3(C(=O)NO)CCOCC3)cc2)C1 (stereo not drawn) [Example 144] | 800 | > 10000 | 30.7
20 | – | – | – | O=C(NO)C1CCCN(c2ccc(S(=O)(=O)C3(C(=O)NO)CCOCC3)cc2)C1 (stereo not drawn) [Example 146] | 650 | > 10000 | 32.6
21 | – | – | – | CN(C)C(=O)C1CCN(c2ccc(S(=O)(=O)C3(C(=O)NO)CCOCC3)cc2)CC1 [Example 147] | 2700 | > 10000 | 31
22 | – | – | – | CCN(CC)C(=O)C1CCN(c2ccc(S(=O)(=O)C3(C(=O)NO)CCOCC3)cc2)CC1 [Example 148] | 2400 | > 10000 | 31
23 | – | – | – | O=C(C1CCN(c2ccc(S(=O)(=O)C3(C(=O)NO)CCOCC3)cc2)CC1)N1CCCCC1 [Example 149] | 1600 | > 10000 | 15.5

Row | IC50 ([1]; room temperature, pH 7.5, 1 percent DMSO, 4 μM MCA peptide substrate, no asterisk) [nM] | IC50 [2] [nM] | IC50 ([3]; room temperature, pH 7.5, 1 percent DMSO, 4 μM MCA peptide substrate) [nM] | SMILES | IC50 ([1]; Inhibition Table B) [nM] | IC50 ([2]; Inhibition Table B) [nM] | IC50 ([3]; Inhibition Table B) [nM]
24 | – | – | – | CN1CCN(C(=O)C2CCN(c3ccc(S(=O)(=O)C4(C(=O)NO)CCOCC4)cc3)CC2)CC1 [Example 150] | 1300 | > 10000 | 14.5
25 | – | – | – | O=C(C1CCN(c2ccc(S(=O)(=O)C3(C(=O)NO)CCOCC3)cc2)CC1)N1CCNCC1 [Example 151] | 1500 | > 10000 | 35
26 | – | – | – | CCOC(=O)C1CCN(C(=O)C2CCN(c3ccc(S(=O)(=O)C4(C(=O)NO)CCOCC4)cc3)CC2)CC1 [Example 152] | 2400 | > 10000 | 16.5
27 | – | – | – | CCOC(=O)C1CCCN(C(=O)C2CCN(c3ccc(S(=O)(=O)C4(C(=O)NO)CCOCC4)cc3)CC2)C1 (stereo not drawn) [Example 153] | 2700 | > 10000 | 13.5
28 | – | – | – | CCOC(=O)C1CCCCN1C(=O)C1CCN(c2ccc(S(=O)(=O)C3(C(=O)NO)CCOCC3)cc2)CC1 (stereo not drawn) [Example 154] | 1600 | > 10000 | 27
29 | – | – | – | CN(C)C(=O)C1CCCN(c2ccc(S(=O)(=O)C3(C(=O)NO)CCOCC3)cc2)C1 (stereo not drawn) [Example 155] | > 1000 | > 10000 | > 100
30 | – | – | – | O=C(C1CCCN(c2ccc(S(=O)(=O)C3(C(=O)NO)CCOCC3)cc2)C1)N1CCCCC1 (stereo not drawn) [Example 156] | 3300 | > 10000 | 27.8
31 | – | – | – | CN1CCN(C(=O)C2CCCN(c3ccc(S(=O)(=O)C4(C(=O)NO)CCOCC4)cc3)C2)CC1 (stereo not drawn) [Example 157] | 6000 | > 10000 | 90
32 | – | – | – | O=C(C1CCCN(c2ccc(S(=O)(=O)C3(C(=O)NO)CCOCC3)cc2)C1)N1CCNCC1 (stereo not drawn) [Example 158] | 5000 | > 10000 | 80
33 | – | – | – | CCOC(=O)C1CCN(C(=O)C2CCCN(c3ccc(S(=O)(=O)C4(C(=O)NO)CCOCC4)cc3)C2)CC1 (stereo not drawn) [Example 159] | 2500 | > 10000 | 15.6
34 | – | – | – | CCOC(=O)C1CCCN(C(=O)C2CCCN(c3ccc(S(=O)(=O)C4(C(=O)NO)CCOCC4)cc3)C2)C1 (stereo not drawn) [Example 160] | 4700 | > 10000 | 33.7
35 | – | – | – | CCOC(=O)C1CCCCN1C(=O)C1CCCN(c2ccc(S(=O)(=O)C3(C(=O)NO)CCOCC3)cc2)C1 (stereo not drawn) [Example 161] | > 1000 | > 10000 | > 100
36 | – | – | – | O=C(C1CCCN(c2ccc(S(=O)(=O)C3(C(=O)NO)CCOCC3)cc2)C1)N1CCCCCC1 (stereo not drawn) [Example 162] | > 1000 | > 10000 | > 100
37 | – | – | – | CC1(C)C[C@@H]2C[C@@](C)(CN2C(=O)C2CCCN(c3ccc(S(=O)(=O)C4(C(=O)NO)CCOCC4)cc3)C2)C1 (stereo partly drawn) [Example 163] | 4000 | > 10000 | 77.4
38 | – | – | – | C[C@@H]1CN(C(=O)C2CCCN(c3ccc(S(=O)(=O)C4(C(=O)NO)CCOCC4)cc3)C2)C[C@H](C)O1 (stereo partly drawn) [Example 169] | > 1000 | – | > 100
39 | – | – | – | O=C(C1CCCN(c2ccc(S(=O)(=O)C3(C(=O)NO)CCOCC3)cc2)C1)N1CCCC2CCCCC21 (stereo not drawn) [Example 170] | > 1000 | – | > 100
40 | – | – | – | N[C@H]1CCN(C(=O)C2CCN(c3ccc(S(=O)(=O)C4(C(=O)NO)CCOCC4)cc3)CC2)C1 [Example 175] | > 1000 | – | > 100
41 | – | – | – | C[C@@H]1CN(C(=O)C2CCN(c3ccc(S(=O)(=O)C4(C(=O)NO)CCOCC4)cc3)CC2)C[C@H](C)O1 [Example 176] | 400 | – | 25
42 | – | – | – | O=C(C1CCN(c2ccc(S(=O)(=O)C3(C(=O)NO)CCOCC3)cc2)CC1)N1CCCC1 [Example 179] | 440 | > 10000 | –
43 | – | – | – | CCCCNC(=O)C1CCN(c2ccc(S(=O)(=O)C3(C(=O)NO)CCOCC3)cc2)CC1 [Example 181] | 121 | – | 6.1
44 | – | – | – | O=C(NC1CCCCCC1)C1CCN(c2ccc(S(=O)(=O)C3(C(=O)NO)CCOCC3)cc2)CC1 [Example 194] | 165 | – | 8
45 | – | – | – | O=C(NCc1ccncc1)C1CCN(c2ccc(S(=O)(=O)C3(C(=O)NO)CCOCC3)cc2)CC1 [Example 195] | – | – | 14.5
